In ChEMBL document CHEMBL4421728, “Bach1 Inhibitors in Combination with Nrf2 Activators and Pharmaceutical Compositions Thereof” (2017):

Key:
[1] = biological target: T1, Transcription regulator protein BACH1 (Homo sapiens) (UniProt O14867); assay: Inhibition of Bach1 in normal human lung fibroblasts assessed as induction of HMOX protein expression at 0.019 uM incubated for 16 to 18 hrs by immunostaining relative to control
T1 sequence (whole entry): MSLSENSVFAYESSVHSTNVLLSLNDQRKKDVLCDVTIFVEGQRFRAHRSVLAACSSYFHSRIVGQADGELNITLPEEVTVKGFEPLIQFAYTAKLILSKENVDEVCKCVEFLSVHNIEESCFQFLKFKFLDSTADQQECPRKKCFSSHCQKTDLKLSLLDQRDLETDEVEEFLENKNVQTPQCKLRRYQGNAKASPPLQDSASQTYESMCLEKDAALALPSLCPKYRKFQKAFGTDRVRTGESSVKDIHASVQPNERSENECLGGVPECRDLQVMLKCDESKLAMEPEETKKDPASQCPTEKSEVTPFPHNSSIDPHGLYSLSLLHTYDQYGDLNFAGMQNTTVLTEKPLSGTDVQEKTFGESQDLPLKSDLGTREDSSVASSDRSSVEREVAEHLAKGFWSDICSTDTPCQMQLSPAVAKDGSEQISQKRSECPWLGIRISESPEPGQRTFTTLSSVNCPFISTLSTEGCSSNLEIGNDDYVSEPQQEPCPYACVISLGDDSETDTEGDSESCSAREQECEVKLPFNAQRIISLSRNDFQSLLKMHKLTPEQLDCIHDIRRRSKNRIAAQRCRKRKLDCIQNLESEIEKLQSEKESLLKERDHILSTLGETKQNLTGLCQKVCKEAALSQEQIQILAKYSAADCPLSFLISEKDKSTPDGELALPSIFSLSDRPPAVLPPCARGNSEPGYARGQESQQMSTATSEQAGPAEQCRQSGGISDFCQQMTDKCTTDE

[2] = biological target: T1, Transcription regulator protein BACH1 (Homo sapiens); assay: Inhibition of Bach1 in normal human lung fibroblasts assessed as induction of HMOX protein expression by measuring HMOX positive cells level at 0.019 uM in presence of 1 uM Nrf2 activator DMF incubated for 16 to 18 hrs by immunostaining relative to control DMSO; parameters: scale not given: the % may be the effect or the level left
[3] = biological target: T1, Transcription regulator protein BACH1 (Homo sapiens); assay: Inhibition of Bach1 in normal human lung fibroblasts assessed as induction of HMOX protein expression by measuring HMOX positive cells level at 0.078 uM in presence of 3 uM Nrf2 activator DMF incubated for 16 to 18 hrs by immunostaining relative to control DMSO; parameters: scale not given: the % may be the effect or the level left
[4] = biological target: T1, Transcription regulator protein BACH1 (Homo sapiens); assay: Inhibition of Bach1 in normal human lung fibroblasts assessed as induction of HMOX protein expression by measuring HMOX positive cells level at 0.156 uM in presence of 30 uM Nrf2 activator DMF incubated for 16 to 18 hrs by immunostaining relative to control DMSO; parameters: scale not given: the % may be the effect or the level left
[5] = biological target: T1, Transcription regulator protein BACH1 (Homo sapiens); assay: Inhibition of Bach1 in normal human lung fibroblasts assessed as induction of HMOX protein expression at 1.25 uM incubated for 16 to 18 hrs by immunostaining relative to control
[6] = biological target: T1, Transcription regulator protein BACH1 (Homo sapiens); assay: Inhibition of Bach1 in normal human lung fibroblasts assessed as induction of HMOX protein expression at 2.5 uM incubated for 16 to 18 hrs by immunostaining relative to control
[7] = biological target: T1, Transcription regulator protein BACH1 (Homo sapiens); assay: Inhibition of Bach1 in normal human lung fibroblasts assessed as induction of HMOX protein expression at 2.5 uM incubated for 16 to 18 hrs in presence of 0.0048 uM Nrf2 activator Bardoxolone methyl by immunostaining relative to control
[8] = biological target: T1, Transcription regulator protein BACH1 (Homo sapiens); assay: Inhibition of Bach1 in normal human lung fibroblasts assessed as induction of HMOX protein expression at 0.019 uM incubated for 16 to 18 hrs in presence of 0.0097 uM Nrf2 activator Bardoxolone methyl by immunostaining relative to control
[9] = biological target: T1, Transcription regulator protein BACH1 (Homo sapiens); assay: Inhibition of Bach1 in normal human lung fibroblasts assessed as induction of HMOX protein expression at 0.312 uM incubated for 16 to 18 hrs in presence of 0.0097 uM Nrf2 activator Bardoxolone methyl by immunostaining relative to control
[10] = biological target: T1, Transcription regulator protein BACH1 (Homo sapiens); assay: Inhibition of Bach1 in normal human lung fibroblasts assessed as induction of HMOX protein expression at 2.5 uM incubated for 16 to 18 hrs in presence of 0.0097 uM Nrf2 activator Bardoxolone methyl by immunostaining relative to control
[11] = biological target: T1, Transcription regulator protein BACH1 (Homo sapiens); assay: Inhibition of Bach1 in normal human lung fibroblasts assessed as induction of HMOX protein expression at 0.039 uM incubated for 16 to 18 hrs in presence of 0.019 uM Nrf2 activator Bardoxolone methyl by immunostaining relative to control
[12] = biological target: T1, Transcription regulator protein BACH1 (Homo sapiens); assay: Inhibition of Bach1 in normal human lung fibroblasts assessed as induction of HMOX protein expression at 0.156 uM incubated for 16 to 18 hrs in presence of 0.019 uM Nrf2 activator Bardoxolone methyl by immunostaining relative to control
[13] = biological target: T1, Transcription regulator protein BACH1 (Homo sapiens); assay: Inhibition of Bach1 in normal human lung fibroblasts assessed as induction of HMOX protein expression at 0.312 uM incubated for 16 to 18 hrs in presence of 0.019 uM Nrf2 activator Bardoxolone methyl by immunostaining relative to control
[14] = biological target: T1, Transcription regulator protein BACH1 (Homo sapiens); assay: Inhibition of Bach1 in normal human lung fibroblasts assessed as induction of HMOX protein expression at 1.25 uM incubated for 16 to 18 hrs in presence of 0.019 uM Nrf2 activator Bardoxolone methyl by immunostaining relative to control
[15] = biological target: T1, Transcription regulator protein BACH1 (Homo sapiens); assay: Inhibition of Bach1 in normal human lung fibroblasts assessed as induction of HMOX protein expression at 0.019 uM incubated for 16 to 18 hrs in presence of 0.039 uM Nrf2 activator Bardoxolone methyl by immunostaining relative to control
[16] = biological target: T1, Transcription regulator protein BACH1 (Homo sapiens); assay: Inhibition of Bach1 in normal human lung fibroblasts assessed as induction of HMOX protein expression at 0.156 uM incubated for 16 to 18 hrs in presence of 0.039 uM Nrf2 activator Bardoxolone methyl by immunostaining relative to control
[17] = biological target: T1, Transcription regulator protein BACH1 (Homo sapiens); assay: Inhibition of Bach1 in normal human lung fibroblasts assessed as induction of HMOX protein expression at 0.078 uM incubated for 16 to 18 hrs in presence of 0.078 uM Nrf2 activator Bardoxolone methyl by immunostaining relative to control
[18] = biological target: T1, Transcription regulator protein BACH1 (Homo sapiens); assay: Inhibition of Bach1 in normal human lung fibroblasts assessed as induction of HMOX protein expression at 0.156 uM incubated for 16 to 18 hrs in presence of 0.078 uM Nrf2 activator Bardoxolone methyl by immunostaining relative to control
[19] = biological target: T1, Transcription regulator protein BACH1 (Homo sapiens); assay: Inhibition of Bach1 in normal human lung fibroblasts assessed as induction of HMOX protein expression at 2.5 uM incubated for 16 to 18 hrs in presence of 0.078 uM Nrf2 activator Bardoxolone methyl by immunostaining relative to control
[20] = biological target: T1, Transcription regulator protein BACH1 (Homo sapiens); assay: Inhibition of Bach1 in normal human lung fibroblasts assessed as induction of HMOX protein expression at 0.078 uM incubated for 16 to 18 hrs in presence of 0.156 uM Nrf2 activator Bardoxolone methyl by immunostaining relative to control
[21] = biological target: T1, Transcription regulator protein BACH1 (Homo sapiens); assay: Inhibition of Bach1 in normal human lung fibroblasts assessed as induction of HMOX protein expression at 0.312 uM incubated for 16 to 18 hrs in presence of 0.312 uM Nrf2 activator Bardoxolone methyl by immunostaining relative to control

COCCNC(=O)c1cnc2c(c1)nc(Nc1nc3ccc(OC(F)(F)F)cc3s1)n2C
fold change (FC) [1]: 1.24
Activity [2]: 7.52%
Activity [3]: 55.2%
Activity [4]: 98.2%

Cn1c(Nc2nc3ccc(C(F)(F)F)cc3s2)nc2cc(C(=O)NCCOCCO)ccc21
fold change (FC) [1]: 2.08
Activity [2]: 26.4%
Activity [3]: 90.3%
Activity [4]: 92.2%

CNC(=O)c1ccc2c(c1)nc(Nc1nc3ccc(OC(F)(F)F)cc3s1)n2C
fold change (FC) [1]: 0.97
fold change (FC) [5]: 16.2
fold change (FC) [6]: 17.5
fold change (FC) [7]: 19.5
fold change (FC) [8]: 7.14
fold change (FC) [9]: 16.4
fold change (FC) [10]: 19.4
fold change (FC) [11]: 8.57
fold change (FC) [12]: 15.9
fold change (FC) [13]: 17.7
fold change (FC) [14]: 15.9
fold change (FC) [15]: 15.9
fold change (FC) [16]: 17.6
fold change (FC) [17]: 19.5
fold change (FC) [18]: 18.4
fold change (FC) [19]: 14.3
fold change (FC) [20]: 17.9
fold change (FC) [21]: 17.4

CN(C)C(=O)CNC(=O)c1ccc2c(c1)nc(Nc1nc3ccc(C(F)(F)F)cc3s1)n2C
fold change (FC) [1]: 1.29
Activity [2]: 10.2%
Activity [3]: 81.8%
Activity [4]: 84%
